The data set can be described thus: Pharmacokinetics after intravenous administration to sheep. Type of data set: in vivo. Conditions: I.V. solution, 5 mg/kg. Here is the method: The Compound I/HP-β-CD intravenous solution was obtained by dissolving CompoundI (10 mg/ml) in a solution containing HP-β-CD (200 mM), L-lysine (20 mM) and water for injection. The osmolality (about 325 mOsmol/kg) and the pH (about 8.2) values of this solution are compatible with an intravenous injection. The solution was sterilized by passing through a sterile 0.20 μm cellulose acetate filter under aseptic conditions.
Six healthy sheep (2 males and 4 females) ranging from 45 to 82 kg of body weight were used as experimental animals. During the test, the animals were fed and watered ad libitum.
The experimental study, which was realized following the scheme of Table 3, included a randomized two-way cross-over design for oral administration followed by an intravenous administration. A wash-out period of 3 weeks was allowed between each administration.
For the intravenous dosage form, all six sheep received 5 mg of Compound I/kg of body weight. The solution was administered through the left jugular vein and blood samples were taken from the right jugular vein before and 5, 10, 15, 20, 30, 45 min, 1, 1.5, 2, 3, 4, 5, 6, 8, 10, 12, 24, 28, 32, 48, 72, 96, 120, 144, 168 h after starting the intravenous administration.
All blood samples were centrifuged and the serum were stored at −80° C. until assayed.
A fully automated method was developed for the LC determination of this compound in serum. Sample clean-up was performed by on-line coupling of a pre-column packed with restricted access material (RAM), namely LiChrospher RP-8ADS (alkyl diol silica), to the analytical column by means of the column-switching technique. The ADS sorbents belong to the group of internal surface reversed-phase supports and have been applied successfully for the clean-up of biological samples prior to LC analysis (Yu, Z., and Westerlund, D., Chromatographia 44 (1997) 589-594; Hubert, Ph., et al., S. T. P. Pharma Pratiques 9 (1999) 160-180; Souverain, S., et al., Journal of Chromatography B 801 (2004) 141-156). The operating conditions are described in a previous paper (Chiap, P., et al., Journal of Chromatography B 817 (2005), 109-117). The method was fully validated according to a novel approach based on accuracy profiles taking into account the total measurement error (Hubert, P., et al., Analytica Chimica Acta 391 (1999) 135-148; Hubert, Ph., et al., S. T. P. Pharma Pratiques 13 (2003) 27-64; Hubert, Ph., et al., J Pharm Biomed. Anal. 36 (2004) 579-586.
For the bioanalytical study, the dosing range of the method had to be increased until 50 μg/ml due to high concentrations to be determined. A partial revalidation was performed and good results were obtained with respect to response function, trueness, precision, accuracy and linearity.
For the intravenous administration study, the pharmacokinetic parameters were determined for each animal using a linear two-compartment model with first-order distribution and elimination (Boroujerdi, M., Pharmacokinetics, Principles and Applications. McGrow-Hill Companies, USA, 2002). The areas under the curve values (AUCs0-168) were calculated by linear trapezoidal rule during the sampling period. The AUC extrapolated until infinite values (AUCs0-∞), the total body clearance values (Clt), the biologic half-life (T1/2β) and the overall volume of distribution (Vdt) were calculated using conventional equations associated with compartmental analysis (Boroujerdi, M., Pharmacokinetics, Principles and Applications, McGrow-Hill Companies, USA, 2002).

Structures are written as SMILES.

In the case of `O=C1NC(=O)C(c2ccc(-c3ccccc3)cc2)(N2CCN(c3ccc([N+](=O)[O-])cc3)CC2)C(=O)N1` [Compound I, 5-Biphenyl-4-yl-5-[4-(4-nitro-phenyl)-piperazin-1-yl]pyrimidine-2,4,6-trione], the distribution phase result (sheep) is on record as “about 30 minutes”. For the setting “both sexes, serum, iv, sheep n = 6, mean ± S.D.”, this molecule yielded an AUC(0-inf) of 859 ± 212 µg·h/mL. For the same molecule, the AUC(0-t) (both sexes, serum, iv, sheep n = 6, mean ± S.D., read-out: AUC0-168 h) was found to be 858 ± 212 µg·h/mL. Moreover, for the setting “both sexes, sheep, serum, iv, sheep n = 6, mean ± S.D., read-out: Clt (total body clearance) (converted)”, the clearance is around 5.97 mL/min. Further, the half-life (both sexes, sheep, serum, iv, sheep n = 6, mean ± S.D., read-out: T1/2β (biologic half-life) (converted)) was around 15.5 h. The Vd (both sexes, sheep, serum, iv, sheep n = 6, mean ± S.D., read-out: Vdt (overall volume of distribution)) was around 8 L.

(Values after patent US20070225253A1, “Use of a trioxopyrimidine for the treatment and prevention of bronchial inflammatory diseases” (priority 2004, published 2007).)
